From US5250673A, “2'-deoxy-5-substituted uridine derivatives” (priority 1983, dated 1993)
Where two headings read alike, the source gives them in different places.

Legend:
[1] = toxicity value: 50% inhibition of weight increase of test animal (Sarcoma 180 tumor-transplanted mice); format: in vivo, mouse; conditions: oral, once a day, 7 days, male ICR/JCL mice; for TD50 at 240 h: mouse, sarcoma 180 bearing mice, read-out: Toxicity value (B) Administration amount of test compound at which weight increase of test animal is inhibited by 50% compared with that of control group
Method: (b) Method for determining toxicity value
Hitherto, toxicity values of anti-malignant tumor agents have been calculated on the bases of LD50 of test animals, in most cases. […] Therefore, in the present test, accumulated toxicity, which well represents the toxicity of anti-malignant tumor agents, was focused on and, as an indication for sensitive detection of the accumulated toxicity, inhibition of weight increase of test animal was measured. That is, when antitumor activity value was determined in the above item (a), the weight of each mouse of each test groups for each test compounds was measured daily from the day of tumor transplanting, immediately before administration.
On the day of tumor weight measurement, the average net weight increase of each mouse of each test groups for each test compounds from the day of tumor transplanting was measured. These increases were compared with the average net weight increase of control group and the ratio of net weight increase of each test groups of each test compounds to that of control group was calculated. From these calculations, there was obtained an addition amount of each test compound at which weight increase is inhibited by 50% compared with that of control group, and that amount was taken as a toxicity value of each compound.

[2] = reported in literature; cited from earlier work
Sarcoma 180 [3] = test: antitumor activity: 50% inhibition of tumor enhancement, Sarcoma 180 transplanted in mice; format: in vivo, mouse; conditions: oral, once a day, 7 days, male ICR/JCL mice, tumor weight day 10
Method: (a) Method for determining of antitumor activity value
5×10^6 Cells of mouse-transplantable tumor Sarcoma 180 were transplanted to each male ICR/JCL-strain mouse (having a weight of 27 to 30 g) subcutaneously at the back. Each test compound dissolved or suspended in 0.1% Tween 80^(*) - 0.5% CMC solution was orally administered to various test groups each consisting of 7 mice once a day for 7 consecutive days from the next day of tumor transplanting, in an amount of 1.0 ml of solution or suspension per 100 g weight per day. As to a control group, the same Tween 80-CMC solution containing no test compound was orally administered once a day for 7 consecutive days in an amount of 1.0 ml per 100 g weight per day. (*) (A trademark for a series of surface which is a polyoxyethylene derivative of fatty acid partial ester of sorbitol anhydride, manufactured by I.C.I. U.S., Inc.)
On the tenth day from the tumor transplanting, an average tumor weight for each administration level of each test compound was determined. This weight was compared with an average tumor weight in control group, and the ratio of tumor enhancement inhibition at each administration level of each test compound compared with control group was calculated. From these calculations, the administration level of each test compound at which the ratio of tumor enhancement inhibition become 50% was obtained and the level (amount) was taken as the antitumor activity value of each compound.

[4] = in vivo; cited from earlier work
[5] = relative to 5-FU; cited from earlier work
Sarcoma 180 [6] = test: calculation of therapeutic index (B)/(A), Sarcoma 180 mice; format: in vivo, mouse; design: key: C = toxicity value (B) / antitumor activity value (A); conditions: Table 1-c; oral, once a day, 7 days
Method: (c) Calculation of therapeutic index
By the use of the antitumor activity value (hereinafter referred to as A) and the toxicity value (hereinafter referred to as B) of each compound, which were obtained in the above items (a) and (b), respectively, therapeutic index (hereinafter referred to as C) was calculated in accordance with the following equation.
Therapeutic index (C)=^(B)(A)

nucleosidephosphorylase = conditions: administered in vivo; cited from earlier work
[7] = compared with 5-FU; cited from earlier work
[8] = administration limited to intraarterial injection; cited from earlier work
[9] = compared with 5-FU; cited from earlier work; remark: listed apart in the source

Compound | Toxicity value (B) Administration amount of test compound at which weight increase of test animal is inhibited by 50% compared with that of control group ([1]; Table 1-a, 14400 min) [mg/kg/day] | TD50 at 240 h ([1]; Table 1-b) [mg/kg] | antitumor activity [2] | Antitumor activity value (A) Administration amount of test compound at which tumor enhancement is inhibited by 50% compared with that of control group (Sarcoma 180 [3]; Table 1-a) [mg/kg/day] | Antitumor activity value (A) Administration amount of test compound at which tumor enhancement is inhibited by 50% compared with that of control group (Sarcoma 180 [3]; Table 1-b) [mg/kg/day] | excretion [4] | prolonged action in blood [4] | carcinostatic activity in vitro [5] | Therapeutic index (C) = (B)/(A) (Sarcoma 180 [6]) | decomposition into 5-FU by nucleosidephosphorylase (nucleosidephosphorylase) | TD50 at 240 h ([1]; Table 1-c) [mg/kg] | Antitumor activity value (A) Administration amount of test compound at which tumor enhancement is inhibited by 50% compared with that of control group (Sarcoma 180 [3]; Table 1-c) [mg/kg/day] | conversion in vivo into active form [7] | toxicity as a medicine [8] | carcinostatic effect [9]
O=c1[nH]c(=O)n([C@H]2C[C@H](O)[C@@H](CO)O2)cc1C(F)(F)F [F3 TdR, 2'-Deoxy-5-trifluoromethyl uridine, reference compound] | 49 | 40 | has an antitumor activity | 68 | 58 |  |  |  |  |  |  |  |  |  | 
O=c1[nH]c(=O)n([C@H]2C[C@H](O)[C@@H](CO)O2)cc1F [FudR, 2'-deoxy-5-fluorouridine] |  |  |  |  |  | excreted very quickly | poor prolonged action in blood | about 100 times that of 5-fluorouracil | 0.76 | easily decomposed into 5-FU by nucleosidephosphorylase | 71 | 93 | more easily than 5-FU | very toxic | inferior to 5-FU in carcinostatic effect
